Measurements from patent publication US12371454B2, “Cyclic peptide compound having Kras inhibitory action” (priority 2019, dated 2025).
Starred links: 1 amine or outer side, 2 acyl side, 3 side chain; linkers in the order of their positions; H or OH if unused. Positions of bridges follow the written chain, without caps; N, C: chain ends. Non-standard residues stand in square brackets, D forms with d. Residues, ends and D or L forms follow the SMILES beside them. *: point of attachment. hPhe(3,5-F2-4-CF3) = N[C@@H](CCc1cc(F)c(C(F)(F)F)c(F)c1)C(=O)O; hPhe(3-Cl-4-CF3) = N[C@@H](CCc1ccc(C(F)(F)F)c(Cl)c1)C(=O)O; hPhe(4-CF3) = N[C@@H](CCc1ccc(C(F)(F)F)cc1)C(=O)O; NMePhe(4-Cl) = CN[C@@H](Cc1ccc(Cl)cc1)C(=O)O; X4 = O=C([C@H](Cc1cc(F)cc(Cl)c1)N[*:1])[*:2]; NMePhe(4-Me) = CN[C@@H](Cc1ccc(C)cc1)C(=O)O; NMePhe(3-F) = CN[C@@H](Cc1cccc(F)c1)C(=O)O; NMedβ3hAla = C[C@H](CC(=O)[*:2])N(C)[*:1]; NMeGly(cPent) = CN[C@H](C(=O)O)C1CCCC1; Pro(4,4-F2) = O=C(O)[C@@H]1CC(F)(F)CN1; NMeCha = CN[C@@H](CC1CCCCC1)C(=O)O; NMeGly(cPr) = CN[C@H](C(=O)O)C1CC1; Nva(3-Et) = CCC(CC)[C@H](N)C(=O)O; NMeF = CN[C@@H](Cc1ccccc1)C(=O)O; NMeI = CC[C@H](C)[C@H](NC)C(=O)O; NMeD = CN[C@@H](CC(=O)O)C(=O)O; NMeL = CN[C@@H](CC(C)C)C(=O)O; NEtAla = CCN[C@@H](C)C(=O)O; NMeV = CN[C@H](C(=O)O)C(C)C; d(β3hA) = C[C@@H](N)CC(=O)O; NMeA = CN[C@@H](C)C(=O)O; NMeAib = CNC(C)(C)C(=O)O; Nle = CCCC[C@H](N)C(=O)O; Piperidide = C1CCN(*)CC1; Pyrrolidide = C1CCN(*)C1; Ac5c = NC1(C(=O)O)CCCC1; Aze = O=C(O)[C@@H]1CCN1; NcPrGly = O=C(O)CNC1CC1; Sar = CNCC(=O)O

target: T1, Kras and SOS1 (biotin-tagged human Kras loaded with GDP, His-tagged human SOS1) (Homo sapiens, UniProt P01116, G12D); experiment: Protein-protein interaction inhibition between Kras and SOS1 (KrasGl2D-SOS PPI) using AlphaScreen; assay type: binding; details: AlphaScreen; biotin-tagged human Kras loaded with GDP, His-tagged human SOS1; read-out: KRAS G12D-SOS PPI IC50
T1 construct: made in house; host or cells: E. coli (stated for Kras only)
T1 sequence (P01116 1-188 isoform P01116-2 G12D): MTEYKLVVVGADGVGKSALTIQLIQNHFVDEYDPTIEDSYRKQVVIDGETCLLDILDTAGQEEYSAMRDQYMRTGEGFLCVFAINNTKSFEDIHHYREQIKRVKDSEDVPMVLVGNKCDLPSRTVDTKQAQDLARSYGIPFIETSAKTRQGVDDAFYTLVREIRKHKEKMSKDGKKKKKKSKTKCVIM
How it was run: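 Donor beads (nickel) hold His-SOS1; acceptor beads (streptavidin) hold biotin-Kras bound to GDP. Signal measured at 520-620 nm following 680 nm excitation.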

Compared with CCC(CC)[C@@H]1NC(=O)[C@H](CC(C)C)N(C)C(=O)C[C@@H](C(=O)N(C)C)N(C)C(=O)[C@H]([C@@H](C)CC)N(C)C(=O)CNC(=O)[C@@H]2CCCN2C(=O)[C@H](CCc2ccc(C(F)(F)F)c(Cl)c2)NC(=O)CN(C)C(=O)[C@H](Cc2ccc(C)cc2)N(C)C(=O)[C@@H]2CCN2C(=O)[C@H](C)N(C)C1=O [Compound 193] ([NMeL][Nva(3-Et)][NMeA][Aze][NMePhe(4-Me)][Sar][hPhe(3-Cl-4-CF3)]PG[NMeI][NMeD]-NMe2; lactam N-11), CC[C@H](C)[C@@H]1NC(=O)[C@H](C)N(C)C(=O)C[C@@H](C(=O)N2CCCC2)NC(=O)[C@H](CC(C)C)N(C)C(=O)[C@H](Cc2ccccc2)N(C)C(=O)[C@H](CC(C)C)N(C)C(=O)[C@H](CCc2ccc(C(F)(F)F)cc2)NC(=O)CN(C)C(=O)[C@H](Cc2ccc(Cl)cc2)N(C)C(=O)CN(C)C(=O)CN(C)C1=O [Compound 199] ([NMeA]I[Sar][Sar][NMePhe(4-Cl)][Sar][hPhe(4-CF3)][NMeL][NMeF][NMeL]D-Pyrrolidide; lactam N-11) is 12-fold lower in IC50: 420 nM for the first, 36 nM for the second.

First: CC[C@H](C)[C@@H]1NC(=O)[C@H](C)N(C)C(=O)C[C@@H](C)NC(=O)[C@H](C2CCCC2)N(C)C(=O)C2(CCCC2)NC(=O)[C@@H]2CCCN2C(=O)[C@H](CCc2ccc(C(F)(F)F)c(Cl)c2)NC(=O)CN(C)C(=O)[C@H](Cc2cccc(F)c2)N(C)C(=O)[C@@H]2CCCN2C(=O)CN(C)C1=O [Compound 194] (cyclo([Ac5c][NMeGly(cPent)][d(β3hA)][NMeA]I[Sar]P[NMePhe(3-F)][Sar][hPhe(3-Cl-4-CF3)]P))
Second: CC[C@H](C)[C@@H]1NC(=O)[C@H](C)N(CC)C(=O)C[C@@H](C)NC(=O)[C@H](C(C)C)N(C)C(=O)C2(CCCC2)NC(=O)[C@@H]2CCCN2C(=O)[C@H](CCc2ccc(C(F)(F)F)c(Cl)c2)NC(=O)CN(C)C(=O)[C@H](CC2CCCCC2)N(C)C(=O)CN(C)C(=O)CN(C)C1=O [Compound 196] (cyclo([Ac5c][NMeV][d(β3hA)][NEtAla]I[Sar][Sar][NMeCha][Sar][hPhe(3-Cl-4-CF3)]P))
The IC50 of the first is 2.1-fold higher: 27 nM for the first, 13 nM for the second.

Going from CC[C@H](C)[C@@H]1NC(=O)[C@H](CC(C)C)N(C)C(=O)C[C@@H](C(=O)N2CCCCC2)N(C)C(=O)[C@H](C2CC2)N(C)C(=O)C2(CCCC2)NC(=O)[C@@H]2CCCN2C(=O)[C@H](CCc2ccc(C(F)(F)F)c(Cl)c2)NC(=O)CN(C)C(=O)[C@H](CC2CCCCC2)N(C)C(=O)CN(C)C(=O)CN(C)C1=O [Compound 197] ([NMeL]I[Sar][Sar][NMeCha][Sar][hPhe(3-Cl-4-CF3)]P[Ac5c][NMeGly(cPr)][NMeD]-Piperidide; lactam N-11) to CC[C@H](C)[C@@H]1NC(=O)[C@H](CC(C)C)N(C)C(=O)C[C@@H](C)NC(=O)[C@H](C(C)C)N(C)C(=O)C2(CCCC2)NC(=O)[C@@H]2CCCN2C(=O)[C@H](CCc2ccc(C(F)(F)F)c(Cl)c2)NC(=O)CN(C2CC2)C(=O)[C@H](CC2CCCCC2)N(C)C(=O)CN(C)C(=O)CN(C)C1=O [Compound 204] (cyclo([Ac5c][NMeV][d(β3hA)][NMeL]I[Sar][Sar][NMeCha][NcPrGly][hPhe(3-Cl-4-CF3)]P)), the IC50 rises from 6.8 nM to 180 nM (26-fold). The first is the more potent here.

Going from CC[C@H](C)[C@@H]1NC(=O)[C@H](CC(C)C)N(C)C(=O)C[C@@H](C)N(C)C(=O)[C@H](C2CCCC2)N(C)C(=O)C2(CCCC2)NC(=O)[C@@H]2CC(F)(F)CN2C(=O)[C@H](CCc2cc(F)c(C(F)(F)F)c(F)c2)NC(=O)CN(C)C(=O)[C@H](CC2CCCCC2)N(C)C(=O)CN(C)C(=O)CN(C)C1=O [Compound 198] (cyclo([Ac5c][NMeGly(cPent)][NMedβ3hAla][NMeL]I[Sar][Sar][NMeCha][Sar][hPhe(3,5-F2-4-CF3)][Pro(4,4-F2)])) to CCCC[C@@H]1NC(=O)[C@H](Cc2cc(F)cc(Cl)c2)NC(=O)CN(C)C(=O)[C@H](Cc2ccc(Cl)cc2)N(C)C(=O)CN(C)C(=O)CN(C)C(=O)[C@H]([C@@H](C)CC)NC(=O)[C@H](CC(C)C)N(C)C(=O)C[C@@H](C(=O)N2CCCCC2)N(C)C(=O)[C@H](CC(C)C)NC(=O)C(C)(C)N(C)C1=O [Compound 202] ([NMeL]I[Sar][Sar][NMePhe(4-Cl)][Sar][X4][Nle][NMeAib]L[NMeD]-Piperidide; lactam N-11), the IC50 rises from 8.5 nM to 39 nM (4.6-fold).
